The source of these data is patent US12516056B2, “Compounds for inhibition of janus kinase 1” (MANKIND PHARMA LTD., priority 2019, dated 2026).

Read-outs that look alike come from different tables or passages of the source. A value given as a limit tells only on which side of the number the result lay.

Assay [1] deals with T1, Recombinant JAK3 (Homo sapiens, UniProt P52333).
T1 construct: purchased Carna Biosciences
T1 sequence (P52333 1-1124): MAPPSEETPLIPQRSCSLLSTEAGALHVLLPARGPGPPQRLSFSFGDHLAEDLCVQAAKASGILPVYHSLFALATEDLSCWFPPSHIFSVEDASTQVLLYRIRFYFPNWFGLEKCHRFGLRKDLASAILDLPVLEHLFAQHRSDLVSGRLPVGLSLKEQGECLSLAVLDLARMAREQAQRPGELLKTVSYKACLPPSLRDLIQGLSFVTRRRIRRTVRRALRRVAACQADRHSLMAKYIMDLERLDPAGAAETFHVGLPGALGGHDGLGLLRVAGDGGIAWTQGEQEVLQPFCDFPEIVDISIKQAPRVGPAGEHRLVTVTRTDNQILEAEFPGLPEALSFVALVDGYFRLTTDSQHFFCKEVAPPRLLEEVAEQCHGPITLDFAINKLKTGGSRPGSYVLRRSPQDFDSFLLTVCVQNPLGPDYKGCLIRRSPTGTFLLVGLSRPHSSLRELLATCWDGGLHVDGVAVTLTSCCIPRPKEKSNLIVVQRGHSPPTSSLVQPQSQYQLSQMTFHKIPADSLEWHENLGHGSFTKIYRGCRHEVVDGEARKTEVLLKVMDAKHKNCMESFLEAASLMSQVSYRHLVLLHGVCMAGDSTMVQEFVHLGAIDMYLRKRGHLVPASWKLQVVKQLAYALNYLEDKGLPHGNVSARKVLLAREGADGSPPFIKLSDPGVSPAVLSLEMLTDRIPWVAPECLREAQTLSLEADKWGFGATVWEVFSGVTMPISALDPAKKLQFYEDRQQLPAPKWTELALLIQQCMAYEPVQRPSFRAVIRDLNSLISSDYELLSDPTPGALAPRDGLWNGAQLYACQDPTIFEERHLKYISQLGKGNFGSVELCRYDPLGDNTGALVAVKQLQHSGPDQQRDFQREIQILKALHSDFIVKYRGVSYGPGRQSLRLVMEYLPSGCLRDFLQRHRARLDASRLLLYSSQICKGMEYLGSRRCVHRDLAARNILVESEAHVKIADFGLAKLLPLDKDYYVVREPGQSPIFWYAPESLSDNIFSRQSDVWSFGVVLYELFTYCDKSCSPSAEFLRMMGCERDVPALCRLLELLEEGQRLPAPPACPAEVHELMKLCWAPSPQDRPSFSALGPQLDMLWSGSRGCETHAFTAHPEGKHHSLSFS
In words: JAK biochemical assay (LANCE Ultra TR-FRET), JAK3. In short, it runs like this:
(§1)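 % inhibition relative to vehicle was derived from TR-FRET signal proportional to ULight-substrate phosphorylation. Reactions used recombinant kinase in HEPES pH 7.5 buffer containing EGTA, MgCl2, DTT and Tween-20.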

Assay [2] concerns STAT5 phosphorylation by GMCSF in TF-1 cells. In words: JAK cellular assay: STAT5 phosphorylation by GMCSF in TF-1 cells (HTRF). It is filed as cell-based. The following applies: Homo sapiens, TF-1 cells. In short, it runs like this:
(§2)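 Phospho-STAT3 (IL-6, 30 ng/ml) and phospho-STAT5 (GMCSF, 5 ng/ml) read by HTRF in lysates after 20 min cytokine exposure, minus unstimulated-cell background. Cells were serum-starved overnight, plated at 120,000/well, given compound 30 min at 37 °C beforehand; DMSO 0.2% final.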

Assay [3] deals with collagen induced mouse arthritis model. In words: Mouse model of rheumatoid arthritis (collagen induced arthritis). It is filed as in vivo. The note with it: orally dosed, QD for 21 days; reference filgotinib. The text has this: Rheumatoid arthritis (RA) is an autoimmune disease that can cause joint pain and damage throughout the body. Several cytokines such as IL-6 and IFN-γ activate the Janus kinase/signal transducers and activators of transcription (JAK/STAT) pathway. Inhibition of JAK/STAT pathway is considered as one of the therapeutic options for treatment of rheumatoid arthritis. Rodent models of arthritis can be used to evaluate the therapeutic potential of compounds dosed preventatively or therapeutically. These models include but are not limited to mouse or rat collagen-induced arthritis, rat adjuvant-induced arthritis, and collagen antibody-induced arthritis.
Compounds described herein are tested for JAK/STAT pathway inhibition driven efficacy in collagen induced mouse arthritis model. Compounds were orally dosed, QD for 21 days and at the end of the study, clinical symptoms, body weight and histopathology of ankle and paws were measured. Arthritis score was calculated for the compounds as well as reference standard, filgotinib.

Assay [4] deals with IFN-γ production in NK 92 cells by IL-12. Kind of assay: IFN-γ production in NK 92 cells by IL-12 (ELISA). The note with it: NK92, IFN-γ detection from cell supernatants, read-out: Cell based IC50 (μM) NK-92/IL-12*. As for the experimental part:
NK 92 cells were cultured in medium without IL-2 for overnight. Next day, 5000 cells per well NK 92 cells were seeded in a 96 well plate. Compounds were added to cells and incubated for 1 hour. Later IL-12, 10 U/ml was added to cells and incubated for overnight. Supernatant was collected from the wells and IFN-7 secretion was measured by using human IFN-7 ELISA kit. Absorbance was measured at 450 nm in BMG FLUOstar. Background signal obtained from cells which were not activated with cytokines, was subtracted from vehicle controls and compound treated wells.

Assay [5] concerns the target T2, Recombinant TYK2 (Homo sapiens, UniProt P29597).
T2 construct: purchased Carna Biosciences
In words: JAK biochemical assay (LANCE Ultra TR-FRET), TYK2. In short, it runs like this: as §1

For assay [6], the target named is T3, Recombinant JAK1 (Homo sapiens, UniProt P23458).
T3 construct: purchased Carna Biosciences
T3 sequence (P23458 whole entry): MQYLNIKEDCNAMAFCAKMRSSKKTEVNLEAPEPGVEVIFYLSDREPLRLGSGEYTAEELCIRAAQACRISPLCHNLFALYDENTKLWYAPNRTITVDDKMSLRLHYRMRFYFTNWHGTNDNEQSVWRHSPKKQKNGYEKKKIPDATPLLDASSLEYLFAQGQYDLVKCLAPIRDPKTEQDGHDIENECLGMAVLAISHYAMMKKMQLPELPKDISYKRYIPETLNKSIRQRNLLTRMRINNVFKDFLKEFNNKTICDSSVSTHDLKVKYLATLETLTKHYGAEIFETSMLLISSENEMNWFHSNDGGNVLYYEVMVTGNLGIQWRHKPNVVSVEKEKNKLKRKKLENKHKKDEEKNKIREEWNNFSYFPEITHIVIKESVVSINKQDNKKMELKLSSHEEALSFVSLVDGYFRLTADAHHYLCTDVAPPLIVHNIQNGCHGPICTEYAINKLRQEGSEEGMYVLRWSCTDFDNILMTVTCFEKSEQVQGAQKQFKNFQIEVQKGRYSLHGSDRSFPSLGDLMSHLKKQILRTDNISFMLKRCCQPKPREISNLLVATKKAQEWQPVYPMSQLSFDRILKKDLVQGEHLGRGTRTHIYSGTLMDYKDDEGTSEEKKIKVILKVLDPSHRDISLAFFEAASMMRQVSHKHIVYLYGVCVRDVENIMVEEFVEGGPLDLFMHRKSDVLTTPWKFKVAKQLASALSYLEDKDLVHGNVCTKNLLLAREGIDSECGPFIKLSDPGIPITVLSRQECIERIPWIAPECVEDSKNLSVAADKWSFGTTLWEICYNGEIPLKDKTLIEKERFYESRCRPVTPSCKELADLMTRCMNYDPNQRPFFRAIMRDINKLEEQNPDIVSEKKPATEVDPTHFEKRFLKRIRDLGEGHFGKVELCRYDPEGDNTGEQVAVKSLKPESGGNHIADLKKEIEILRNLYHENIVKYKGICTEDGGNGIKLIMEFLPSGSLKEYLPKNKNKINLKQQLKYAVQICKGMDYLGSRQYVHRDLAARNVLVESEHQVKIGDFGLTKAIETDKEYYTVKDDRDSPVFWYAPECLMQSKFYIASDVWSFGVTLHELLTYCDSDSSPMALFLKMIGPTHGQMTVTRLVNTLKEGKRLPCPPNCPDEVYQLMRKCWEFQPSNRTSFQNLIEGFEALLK
Kind of assay: JAK biochemical assay (LANCE Ultra TR-FRET), JAK1. In short, it runs like this:
as §1

Assay [7] has as its system STAT5 phosphorylation by IL-2 in HT-2 cells. Kind of assay: STAT5 phosphorylation by IL-2 in HT-2 cells (HTRF). It counts as cell-based. The note with it: HT2, HT-2 cells. In short, it runs like this: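 Readout is HTRF detection of phospho-STAT5 in lysates, corrected for signal from unstimulated cells. Before lysis, HT-2 cells starved in 10% FBS medium received compound for 30 min (0.2% DMSO final, 37 °C), followed by 50 U/ml recombinant human IL-2 for 20 min.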

The subject of assay [8] is STAT3 phosphorylation by IL-6 in TF-1 cells. In words: JAK cellular assay: STAT3 phosphorylation by IL-6 in TF-1 cells (HTRF). It counts as cell-based. The note with it: Homo sapiens, TF-1, TF-1 cells. In short, it runs like this:
as §2

Assay [9] deals with T4, Recombinant JAK2 (Homo sapiens, UniProt O60674).
T4 construct: purchased Carna Biosciences
T4 sequence (O60674 whole entry): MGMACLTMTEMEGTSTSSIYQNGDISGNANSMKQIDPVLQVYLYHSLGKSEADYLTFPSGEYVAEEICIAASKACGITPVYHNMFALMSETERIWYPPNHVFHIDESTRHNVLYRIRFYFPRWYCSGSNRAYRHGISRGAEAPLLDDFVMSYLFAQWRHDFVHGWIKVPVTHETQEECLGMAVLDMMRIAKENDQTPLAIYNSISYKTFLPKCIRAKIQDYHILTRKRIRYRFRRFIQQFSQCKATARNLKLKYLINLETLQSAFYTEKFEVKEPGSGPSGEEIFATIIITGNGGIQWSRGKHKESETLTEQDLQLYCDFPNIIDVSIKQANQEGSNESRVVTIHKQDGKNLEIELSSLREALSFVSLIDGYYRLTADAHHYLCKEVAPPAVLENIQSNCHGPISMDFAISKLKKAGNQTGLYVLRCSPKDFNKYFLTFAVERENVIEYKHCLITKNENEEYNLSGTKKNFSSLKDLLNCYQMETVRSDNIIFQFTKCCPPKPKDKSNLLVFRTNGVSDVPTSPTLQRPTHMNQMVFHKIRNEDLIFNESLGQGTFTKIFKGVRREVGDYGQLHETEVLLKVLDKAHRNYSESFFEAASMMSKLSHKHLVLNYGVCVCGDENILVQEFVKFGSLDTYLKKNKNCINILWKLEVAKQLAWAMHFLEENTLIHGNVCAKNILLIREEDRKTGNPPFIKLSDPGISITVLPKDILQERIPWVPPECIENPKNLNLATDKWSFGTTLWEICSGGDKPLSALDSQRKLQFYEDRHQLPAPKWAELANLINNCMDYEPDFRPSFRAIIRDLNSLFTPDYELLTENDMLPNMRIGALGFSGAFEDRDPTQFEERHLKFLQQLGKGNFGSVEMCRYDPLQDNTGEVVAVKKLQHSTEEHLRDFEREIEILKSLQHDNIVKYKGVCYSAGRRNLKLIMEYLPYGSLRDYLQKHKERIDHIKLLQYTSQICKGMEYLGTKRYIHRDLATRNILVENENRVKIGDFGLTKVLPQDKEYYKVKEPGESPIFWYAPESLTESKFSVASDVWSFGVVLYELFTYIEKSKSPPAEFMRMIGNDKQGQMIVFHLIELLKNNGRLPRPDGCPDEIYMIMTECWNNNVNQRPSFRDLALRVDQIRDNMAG
Kind of assay: JAK biochemical assay (LANCE Ultra TR-FRET), JAK2. The note with it: read-out: Biochemical IC50 (nM) JAK2. The method, boiled down:
as §1

T2 sequence (P29597 whole entry): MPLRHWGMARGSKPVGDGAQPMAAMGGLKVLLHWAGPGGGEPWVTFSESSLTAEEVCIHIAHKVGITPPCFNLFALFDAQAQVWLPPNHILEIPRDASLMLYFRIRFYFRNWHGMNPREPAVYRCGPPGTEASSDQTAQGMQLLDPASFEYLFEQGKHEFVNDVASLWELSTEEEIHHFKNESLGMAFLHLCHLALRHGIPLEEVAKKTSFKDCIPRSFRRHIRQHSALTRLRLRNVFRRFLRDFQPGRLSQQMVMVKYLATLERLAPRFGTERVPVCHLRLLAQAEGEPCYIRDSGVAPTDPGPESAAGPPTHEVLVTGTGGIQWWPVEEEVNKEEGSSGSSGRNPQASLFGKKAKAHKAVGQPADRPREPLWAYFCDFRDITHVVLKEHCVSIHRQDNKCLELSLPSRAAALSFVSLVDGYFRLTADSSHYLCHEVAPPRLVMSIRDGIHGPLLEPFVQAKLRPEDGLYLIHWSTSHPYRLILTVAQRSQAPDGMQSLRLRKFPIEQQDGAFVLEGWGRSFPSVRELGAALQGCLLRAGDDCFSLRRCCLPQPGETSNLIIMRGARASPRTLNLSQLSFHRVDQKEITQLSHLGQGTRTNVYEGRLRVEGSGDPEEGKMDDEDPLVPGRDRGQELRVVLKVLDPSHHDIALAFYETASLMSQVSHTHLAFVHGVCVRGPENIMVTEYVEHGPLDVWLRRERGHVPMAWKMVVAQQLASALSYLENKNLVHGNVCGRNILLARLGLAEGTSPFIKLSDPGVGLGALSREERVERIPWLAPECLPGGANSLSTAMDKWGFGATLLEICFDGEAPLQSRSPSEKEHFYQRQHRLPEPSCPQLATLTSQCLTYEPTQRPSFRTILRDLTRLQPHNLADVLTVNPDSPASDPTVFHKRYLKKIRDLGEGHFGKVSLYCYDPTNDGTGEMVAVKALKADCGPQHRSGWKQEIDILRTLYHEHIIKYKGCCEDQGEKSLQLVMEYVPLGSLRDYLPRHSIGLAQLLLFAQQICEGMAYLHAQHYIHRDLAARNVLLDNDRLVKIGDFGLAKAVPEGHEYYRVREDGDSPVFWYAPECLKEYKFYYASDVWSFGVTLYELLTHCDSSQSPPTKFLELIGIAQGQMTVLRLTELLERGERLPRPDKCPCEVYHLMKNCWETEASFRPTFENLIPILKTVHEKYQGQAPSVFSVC

Take `CS(=O)(=O)CC[C@@H](c1ccc(-n2cc(-c3ccnc4[nH]cnc34)cn2)nc1)C(F)(F)F` [Example 1181, 7-(1-(5-((S)-1,1,1-trifluoro-4-(methylsulfonyl)butan-2-yl)pyridin-2-yl)-1H-pyrazol-4-yl)-3H-imidazo[4,5-b]pyridine]: the IC50 in assay [1] (read-out: Biochemical IC50 (nM) JAK3) was 42 nM; in assay [1] (recombinant JAK3, TR-FRET, read-out: Biochemical Assay (μM) JAK3), less than 100 nM; in assay [2] (GM-CSF stimulation, read-out: Cell based IC50 (μM) TF-1/GM-CSF), greater than 10 µM; in assay [2] (GMCSF 5 ng/ml, pSTAT5 HTRF, read-out: Cell Based Assay (μM) TF-1/GMCSF/pSTAT5) it was greater than 1 µM; in [4], greater than 10 µM; in assay [5] (read-out: Biochemical IC50 (nM) TYK2) it was greater than 1 nM. Moreover, the IC50 in assay [5] (recombinant TYK2, TR-FRET, read-out: Biochemical Assay (μM) TYK2) is greater than 1000 nM; in assay [6] (read-out: Biochemical IC50 (nM) JAK1), 15 nM; in [6] (recombinant JAK1, TR-FRET, read-out: Biochemical Assay (μM) JAK1) it was less than 100 nM; in assay [7] (IL-2 50 U/ml, pSTAT5 HTRF, read-out: Cell Based Assay (μM) HT-2/IL-2/pSTAT5), greater than 1 µM; in assay [7] (IL-2 stimulation, read-out: Cell based IC50 (μM) HT-2/IL-2) it was 0.9 µM; in assay [8] (IL-6 30 ng/ml, pSTAT3 HTRF, read-out: Cell Based Assay (μM) TF-1/IL-6/pSTAT3) it was greater than 0.5 µM. Also, the IC50 was 0.35 µM in [8] (IL-6 stimulation, read-out: Cell based IC50 (μM) TF-1/IL-6) and 105 nM in [9]. The “efficacy (arthritis score) in collagen induced mouse arthritis model” value in [3] was “very good efficacy”.
